Laboratory results from patent publication US10040791B2, “Isoxazole derivative as mutant isocitrate dehydrogenase 1 inhibitor” (Daiichi Sankyo Company, Limited, priority 2014, dated 2018).

Key:
[1] = system: HT1080 xenografted mice (IDH1R132C); assay: 2-HG production inhibitory activity using HT1080 xenografted mice; assay type: in vivo, mouse; settings: Mus musculus, HT-1080, po, 6 h, 2-HG production, HT1080 xenografted mice; read-out: Test Example 5 Ratio (%)
Outline: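 Mice bearing HT1080 tumors received 75 mg/kg compound by oral gavage twice a day, three doses in total, at 10 mL/kg; vehicle-dosed mice were negative controls. Tumors were collected 6 h after the final dose, frozen, homogenized in methanol and centrifuged, and 2-HG was measured in the extracts.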

[2] = system: HT-1080 cells expressing IDH1R132C; assay: 2-HG production inhibitory activity using HT1080 cell; assay type: cell-based, human; settings: Homo sapiens, HT-1080; 2-HG production, HT1080 cells; read-out: Test Example 3 IC50
Protocol: Then, 100 μL of growth medium B was added to each well, further 25 μL of a solution of each compound diluted to a predetermined concentration with growth medium B was added to each well, and the cells were incubated at 37° C. for 2 days under 5% CO2. […] Then, 150 μL of ultrapure water was further added to each well, and the mixture was stirred by pipetting and stored at −20° C.
The preserved solutions were thawed at room temperature.

IDH1R132C = IDH1R132C (Homo sapiens (Human), UniProt O75874, R132C); assay: Inhibitory activity against IDH1R132C enzyme (NADPH detection, WST-8); assay type: biochemical; settings: 10 nM, residual NADPH detected with WST-8, read-out: Test Example 1 IDH1 R132C IC50
Chain of IDH1R132C (O75874 whole entry R132C): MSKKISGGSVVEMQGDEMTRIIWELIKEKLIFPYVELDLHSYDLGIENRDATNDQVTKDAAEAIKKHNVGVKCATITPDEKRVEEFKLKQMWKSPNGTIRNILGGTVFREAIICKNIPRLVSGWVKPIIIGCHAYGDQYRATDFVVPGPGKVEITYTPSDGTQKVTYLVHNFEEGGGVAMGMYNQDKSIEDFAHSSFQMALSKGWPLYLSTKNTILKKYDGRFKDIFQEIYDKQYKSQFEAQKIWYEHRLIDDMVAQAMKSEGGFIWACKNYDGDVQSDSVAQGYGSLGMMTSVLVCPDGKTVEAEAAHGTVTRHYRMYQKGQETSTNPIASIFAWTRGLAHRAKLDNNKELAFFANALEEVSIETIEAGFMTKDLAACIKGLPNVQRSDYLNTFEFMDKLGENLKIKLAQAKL

| SMILES | IC50 [2] [nM] | IC50 (IDH1R132C) [nM] | response vs control in vivo at 75 mg/kg [1] [%] |
| --- | --- | --- | --- |
| C=CC(=O)N1CCC(c2onc(-c3ccc(Cl)cc3Cl)c2C(=O)n2cc(C)c3c(/C=C/C(=O)O)cccc32)CC1 [Example 106] | 23 | 149 | 12 |
| C=CC(=O)N1CCC(c2onc(-c3c(Cl)cccc3Cl)c2C(=O)n2cc(C)c3c(/C=C/C(=O)O)cccc32)CC1 [Example 108] | 38 | 149 | 58 |
| C=CC(=O)N1CCC(c2onc(-c3c(C)cc(C)cc3C)c2C(=O)n2ccc3c(/C=C/C(=O)O)cccc32)CC1 [Example 109] | 45 | 243 | 23 |
| C=CC(=O)N1CCC(c2onc(-c3c(Cl)cc(F)cc3Cl)c2C(=O)n2cc(C)c3c(/C=C/C(=O)O)cccc32)CC1 [Example 112] | 12 | 115 | 15 |
| C=CC(=O)N1CCC(c2onc(-c3c(C)cc(C)cc3C)c2C(=O)n2cc(C)c3c(/C=C/C(=O)O)cccc32)CC1 [Example 114] | 3 | 81 | 12 |
| C=CC(=O)N1CCC(c2onc(-c3c(Cl)cc(Cl)cc3Cl)c2C(=O)n2cc(C)c3c(CCC(=O)O)cccc32)CC1 [Example 115] | 32 | 301 | 12 |
| C/C=C/C(=O)N1CCC(c2onc(-c3c(Cl)cc(Cl)cc3Cl)c2C(=O)n2cc(C)c3c(/C=C/C(=O)O)cccc32)CC1 [Example 119] | 30 | 190 | 12 |
| C=CC(=O)N1CCC(c2onc(-c3cc(F)c(Cl)cc3Cl)c2C(=O)n2cc(C)c3c(/C=C/C(=O)O)cccc32)CC1 [Example 121] | 8 | 110 | 8 |
| C=CC(=O)N1CCC(c2onc(-c3c(C)cc(Cl)cc3C)c2C(=O)n2cc(C)c3c(/C=C/C(=O)O)cccc32)CC1 [Example 122] | 6 | 94 | 29 |
| C=CC(=O)N1CCC(c2onc(-c3c(Cl)cc(Cl)cc3Cl)c2C(=O)n2cc3c4c(cccc42)C(CC(=O)O)CC3)CC1 (stereo not drawn) [Example 125] | 78 | 454 | 72 |
| C=CC(=O)N1CCC(c2onc(-c3cc(F)c(Cl)cc3Cl)c2C(=O)n2cc3c4c(cccc42)/C(=C/C(=O)O)CC3)CC1 [Example 128] | 3 | 91 | 1 |
| C=CC(=O)N1CCC(c2onc(-c3ccc(Cl)c(F)c3Cl)c2C(=O)n2cc3c4c(cccc42)/C(=C/C(=O)O)CC3)CC1 [Example 130, (2E)-[1-{[5-(1-Acryloylpiperidin-4-yl)-3-(2,4-dichloro-3-fluorophenyl)-1,2-oxazol-4-yl]carbonyl}-3,4-dihydrobenzo[cd]indol-5(1H)-ylidene]ethanoic acid] | 14 | 143 | 5 |
| C=CC(=O)N1CCC(c2onc(-c3ccc(Cl)cc3Cl)c2C(=O)n2cc3c4c(cccc42)/C(=C/C(=O)O)CC3)CC1 [Example 131, (2E)-[1-{[5-(1-Acryloylpiperidin-4-yl)-3-(2,4-dichlorophenyl)-1,2-oxazol-4-yl]carbonyl}-3,4-dihydrobenzo[cd]indol-5(1H)-ylidene]ethanoic acid] | 4 | 133 | 3 |
| C=CS(=O)(=O)N1CCN(c2onc(-c3c(Cl)cccc3Cl)c2C(=O)n2ccc3c(/C=C/C(=O)O)cccc32)CC1 [Example 149, (2E)-3-[1-({3-(2,6-Dichlorophenyl)-5-[4-(ethenylsulfonyl)piperazin-1-yl]-1,2-oxazol-4-yl}carbonyl)-1H-indol-4-yl]prop-2-enoic acid] | 278 | 132 | 96 |

Further lines, with some results ahead:

| IC50 [2] [nM] | IC50 (IDH1R132C) [nM] | SMILES | response vs control in vivo at 75 mg/kg [1] [%] |
| --- | --- | --- | --- |
| 48 | 316 | C=CC(=O)N1CCC(c2onc(-c3c(C)cc(Cl)cc3C)c2C(=O)n2ccc3c(/C=C/C(=O)O)cccc32)CC1 [Example 110] | 52 |
| 2 | 104 | C=CC(=O)N1CCC(C)(c2onc(-c3c(Cl)cc(Cl)cc3Cl)c2C(=O)n2cc(C)c3c(/C=C/C(=O)O)cccc32)CC1 [Example 113] | 13 |
| 42 | 471 | C=CC(=O)N1CCC(c2onc(-c3c(Cl)cc(Cl)cc3Cl)c2C(=O)n2ccc3c(/C=C(\C)C(=O)O)cccc32)CC1 [Example 116] | 57 |
| 2 | 117 | C=CC(=O)N1CCC(OC)(c2onc(-c3c(Cl)cc(Cl)cc3Cl)c2C(=O)n2cc(C)c3c(/C=C/C(=O)O)cccc32)CC1 [Example 117] | 10 |
| 97 | 625 | C=CC(=O)N1CCC(c2onc(-c3c(Cl)cc(Cl)cc3Cl)c2C(=O)n2ncc3c(/C=C/C(=O)O)cccc32)CC1 [Example 118] | 87 |
| 51 | 357 | C=CC(=O)N1CCC(COC)(c2onc(-c3c(Cl)cc(Cl)cc3Cl)c2C(=O)n2ccc3c(/C=C/C(=O)O)cccc32)CC1 [Example 120] | 31 |
| 190 | 137 | C=CC(=O)N1CCN(c2onc(-c3c(Cl)cccc3Cl)c2C(=O)n2ccc3c(/C=C/C(=O)O)cccc32)[C@H](C)C1 [Example 141, (2E)-3-[1-({5-[(2R)-4-Acryloyl-2-methylpiperazin-1-yl]-3-(2,6-dichlorophenyl)-1,2-oxazol-4-yl}carbonyl)-1H-indol-4-yl]prop-2-enoic acid] | 36 |
| 134 | 123 | C=CC(=O)N1CCN(c2onc(-c3c(Cl)cccc3Cl)c2C(=O)n2ccc3c(/C=C/C(=O)O)cccc32)CC1 [Example 142, (2E)-3-(1-{[5-(4-Acryloylpiperazin-1-yl)-3-(2,6-dichlorophenyl)-1,2-oxazol-4-yl]carbonyl}-1H-indol-4-yl)prop-2-enoic acid] | 56 |
| 148 | 150 | C=CC(=O)N1CCN(c2onc(-c3c(Cl)cc(Cl)cc3Cl)c2C(=O)n2ccc3c(/C=C/C(=O)O)cccc32)CC1 [Example 143, (2E)-3-(1-{[5-(4-Acryloylpiperazin-1-yl)-3-(2,4,6-trichlorophenyl)-1,2-oxazol-4-yl]carbonyl}-1H-indol-4-yl)prop-2-enoic acid] | 60 |
| 107 | 151 | C=CC(=O)N1C[C@@H](C)N(c2onc(-c3c(Cl)cccc3Cl)c2C(=O)n2ccc3c(/C=C/C(=O)O)cccc32)[C@@H](C)C1 [Example 144, (2E)-3-(1-{[5-(4-Acryloyl-cis-2,6-dimethylpiperazin-1-yl)-3-(2,6-dichlorophenyl)-1,2-oxazol-4-yl]carbonyl}-1H-indol-4-yl)prop-2-enoic acid] | 34 |
| 820 | 214 | C=CC(=O)N1CCN(c2onc(-c3c(Cl)cccc3Cl)c2C(=O)n2ccc3c(/C=C/C(=O)O)cccc32)[C@@H](C)C1 [Example 145, (2E)-3-[1-({5-[(2S)-4-Acryloyl-2-methylpiperazin-1-yl]-3-(2,6-dichlorophenyl)-1,2-oxazol-4-yl}carbonyl)-1H-indol-4-yl]prop-2-enoic acid] | 56 |
| 219 | 78 | C=CC(=O)N1CCN(c2onc(-c3c(Cl)cccc3Cl)c2C(=O)n2ccc3c(/C=C/C(=O)O)cccc32)C2(CC2)C1 [Example 147, (2E)-3-(1-{[5-[7-Acryloyl-4,7-diazaspiro[2.5]oct-4-yl]-3-(2,6-dichlorophenyl)-1,2-oxazol-4-yl]carbonyl}-1H-indol-4-yl)prop-2-enoic acid] | 18 |
| 114 | 225 | C=CC(=O)N1CCN(c2onc(-c3c(Cl)cc(Cl)cc3Cl)c2C(=O)n2ccc3c(/C=C/C(=O)O)cccc32)C[C@H]1C [Example 148, (2E)-3-[1-({5-[(3R)-4-Acryloyl-3-methylpiperazin-1-yl]3-(2,4,6-trichlorophenyl)-1,2-oxazol-4-yl}carbonyl)-1H-indol-4-yl]prop-2-enoic acid] | 50 |
| 41 | 98 | C=CC(=O)N1CCN(c2onc(-c3c(Cl)cc(Cl)cc3Cl)c2C(=O)n2ccc3c(/C=C/C(=O)O)cccc32)C2(CC2)C1 [Example 150, (2E)-3-(1-{[5-[7-Acryloyl-4,7-diazaspiro[2.5]oct-4-yl]-3-(2,4,6-trichlorophenyl)-1,2-oxazol-4-yl]carbonyl}-1H-indol-4-yl)prop-2-enoic acid] | 18 |
| 41 | 168 | C=CC(=O)N1C[C@@H](C)N(c2onc(-c3c(Cl)cc(Cl)cc3Cl)c2C(=O)n2ccc3c(/C=C/C(=O)O)cccc32)[C@@H](C)C1 [Example 151, (2E)-3-(1-{[5-(4-Acryloyl-cis-2,6-dimethylpiperazin-1-yl)-3-(2,4,6-trichlorophenyl)-1,2-oxazol-4-yl]carbonyl}-1H-indol-4-yl)prop-2-enoic acid] | 60 |
